# In patent publication EP4631941A1 (Jiangsu Tasly Diyi Pharmaceutical Co., Ltd., priority 2022, dated 2024):
# Where two headings read alike, the source gives them in different places.
# Columns and labels:
# DYRK2 kinase = target: T1, DYRK2 kinase (Homo sapiens, UniProt Q92630); experiment: DYRK2 kinase activity analysis assay (33P-ATP, DYRKtide substrate, P81 filter paper); format: biochemical; conditions: 2 hours at room temperature
# T1 sequence (Q92630 1-601): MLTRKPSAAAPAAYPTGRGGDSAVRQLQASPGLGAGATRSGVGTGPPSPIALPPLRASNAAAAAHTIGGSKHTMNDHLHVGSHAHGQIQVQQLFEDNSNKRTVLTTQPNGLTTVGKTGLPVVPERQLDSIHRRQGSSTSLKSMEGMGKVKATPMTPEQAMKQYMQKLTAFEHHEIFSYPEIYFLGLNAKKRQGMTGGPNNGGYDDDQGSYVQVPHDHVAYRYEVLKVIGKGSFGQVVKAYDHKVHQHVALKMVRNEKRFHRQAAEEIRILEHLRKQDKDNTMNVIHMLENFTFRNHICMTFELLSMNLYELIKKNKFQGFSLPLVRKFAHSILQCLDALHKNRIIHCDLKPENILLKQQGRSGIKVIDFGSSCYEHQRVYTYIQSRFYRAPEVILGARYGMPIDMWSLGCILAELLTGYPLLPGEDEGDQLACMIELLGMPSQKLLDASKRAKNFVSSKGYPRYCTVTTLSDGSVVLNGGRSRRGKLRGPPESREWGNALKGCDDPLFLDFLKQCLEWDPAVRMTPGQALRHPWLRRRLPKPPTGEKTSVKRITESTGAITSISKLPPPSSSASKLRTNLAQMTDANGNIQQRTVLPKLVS
# [1] = tested on: prostate cancer DU145 cells; experiment: Cell proliferation inhibition activity assay (CCK-8 method), DU145; format: cell-based
# [2] = tested on: prostate cancer 22Rv1 cells; experiment: Cell proliferation inhibition activity assay (CCK-8 method), 22Rv1; format: cell-based
# ICR mice = experiment: Acute toxicity test, single gavage, 14 days observation; format: in vivo
# [3] = tested on: human prostate cancer cell DU145 xenografts in nude mice; experiment: In vivo efficacy assay against prostate cancer (DU145 xenograft); set-up: species or system BALB/c nude mice; conditions: Example 20 study, 21 days; for T/C(%) / tumor inhibition rate: DU145 xenograft; for body weight of nude mice during dosing: each group, once a day
structure (smiles),measurement,setting,value
"Cl.O=C(c1ccc(Nc2ncc(F)c(-c3ccc4scnc4c3)n2)nc1)N1CCNCC1 [Example 20, (6-((4-(benzothiazole-5-yl)-5-fluoropyrimidine-2-yl)amino)pyridine-3-yl)(piperazine-1-yl)ketone hydrochloride]",IC50,DYRK2 kinase; read-out: IC50,0.6 nM
same,IC50,"[1]; Homo sapiens, DU-145, DU145 cells, 72 hours, CCK8",3.25 ± 0.06 µM
same,inhibition of proliferation of prostate cancer DU145 cell,[1]; result in words,significantly inhibit
same,IC50,"[2]; Homo sapiens, 22Rv1 cells, 72 hours, CCK8",2.55 ± 0.046 µM
same,inhibition of proliferation of prostate cancer 22Rv1 cell,[2]; result in words,significantly inhibit
same,death of animals after day 14 of dosing,"ICR mice; gavage once, 1000, 2500, 5000 and 10000 mg/kg, day 14",no animals died
same,"weight of main organs (heart, liver, spleen, lung, kidney) versus control group","ICR mice; gavage once, 1000, 2500, 5000 and 10000 mg/kg, dissection after 14 days",no difference in the weight of main organs
same,abnormality after dosing,"ICR mice; gavage once, 1000, 2500, 5000 and 10000 mg/kg, within 12 hours after dosing",no abnormality was observed
same,death of animals within 24 hours of dosing,"ICR mice; gavage once, 1000, 2500, 5000 and 10000 mg/kg, within 24 hours",No animals died
same,toxic or side effects (overall conclusion),"ICR mice; gavage once, up to 10000 mg/kg",no obvious toxic or side effects
same,T/C(%),[3]; 100 mg/kg once a day,50.9%
same,tumor inhibition rate,[3]; 100 mg/kg once a day,48.7%
same,body weight of nude mice during dosing,[3],no significant decrease in body weight
same,T/C(%),[3]; high dose 200 mg/kg once a day,34.4%
same,tumor inhibition rate,[3]; high dose 200 mg/kg once a day,65.3%
CN(C)c1nc2ccc(-c3nc(Nc4ccc(C(=O)N5CCN(C(=O)C6CC6)CC5)cn4)ncc3F)cc2s1 [Example 36],IC50,DYRK2 kinase; IC50 (nM),16 nM
"CN(C)c1nc2ccc(-c3nc(Nc4ccc(C(=O)N5CCN(c6ccccc6)CC5)cn4)ncc3F)cc2s1 [Example 37, (6-((4-(2-(dimethylamino)benzothiazole-6-yl)-5-fluoropyrimidine-2-yl)amino)pyridine-3-yl)(4 - arylpiperazine-1-yl)ketone]",IC50,DYRK2 kinase; IC50 (nM),683 nM
"CCOC(=O)N1CCN(C(=O)c2ccc(Nc3ncc(F)c(-c4ccc5nc(N(C)C)sc5c4)n3)nc2)CC1 [Example 38, ethyl 4-(6-((4-(2-(dimethylamino)benzothiazole-6-yl)-5-fluoropyrimidine-2-yl)amino)nicotinoyl)piperazine-1-carboxylate]",IC50,DYRK2 kinase; read-out: IC50,91 nM
"CNC(=O)c1ccc(N2C(=S)N(c3ccc(C#N)c(C(F)(F)F)c3)C(=O)C2(C)C)cc1F [enzalutamide, reference compound]",T/C(%),[3]; 100 mg/kg once a day,42.0%
same,tumor inhibition rate,[3]; 100 mg/kg once a day,57.8%
same,body weight of nude mice during dosing,[3],no significant decrease in body weight
